Measured values reported in PMC6409085, “Three odorant-binding proteins are involved in the behavioral response of Sogatella furcifera to rice plant volatiles” (PeerJ, 2019).
Read-outs that look alike come from different tables or passages of the source.

Tests used:
[1] = test system: dsRNA treated S. furcifera adults; assay: Y-tube olfactometer behavioral trials after RNAi; format: in vivo, Sogatella furcifera; settings: for number of insects choosing hexane arm / number of insects choosing volatile arm / number of insects failed (no choice): odorant vs hexane
Method: To test the effect of the rice odorants on the behavior of S. furcifera adults, a glass Y-tube olfactometer (inner diameter 2.0 cm, stem 13 cm, arms 10 cm, angle of arms 60°) according to the previously described ([Wang et al., 2014b]) was employed. An airtight cubic box (70 by 45 by 30 cm) was used to position Y-tube, and the Y-tube was lighted by a 30-W filament lamp 25 cm above it. Air that filtered through activated charcoal and humidified with doubly distilled water was pumped in both arms at a flow rate of 300 mL/min. Two filter paper strips (10 by 1 cm) containing 100 µL odorant source (50 µL/L) and 100 µL control hexane were placed in two holding chambers in the front of the olfactometer, respectively. A S. furcifera adult (2 days after emergence, starved for 0.5 h) was randomly chosen and placed in the stem of the Y-tube. Each insect was given 10 min to choose between the two arms of the Y-tube, the choice was noted if the planthopper reached one-half of the arms’ lengths and stayed in the arm for more than 1 min. Besides, S. furcifera was considered as having no orientation preference. Forty-five individuals were used for each compound, each insect used only once. And the dual-choice experiment was done in an environmentally controlled room (25 ± 1 °C and 50% RH). A Chi-squared test was used to analyze the behavioral assay data by using SPSS19.0 (SPSS Inc., Chicago, IL, USA) software.
S. furcifera adults (one-day-old, CO2 anesthetized) were injected with dsRNA (50 nL/adult, 2,000 ng/µL) through the membrane between the meso- and meta-thoracic legs using a Nanoinjector (Drummond Scientific, Broomall, PA, USA). Five treatments including dsOBP2, dsOBP3, dsOBP11, dsEGFP and RNase-free water (Control) were set up. Each treatment consisted of 30 adults and the experiments were repeated three times. Ten individuals were collected from each replicate to determine the effects of RNAi by qPCR post 24 h of dsRNA injection (the timepoint with maximum RNAi efficiency after injection). Meanwhile, the behavioral responses of dsRNA treated adults for volatiles which binding well to OBP and attract or repel to S. furcifera were tested using a Y-tube olfactometer as described above.

S. furcifera adults = test system: S. furcifera adults; design: method as in Wang et al., 2017; settings: previously reported, ref Wang et al., 2017, cited from earlier work

CC(=O)/C=C/C1=C(C)CCCC1(C)C [β-Ionone]
behavioral response (in words) ([1]; SfurOBP2 silenced adults): significantly reduced the number of adults that attracted
number of insects choosing hexane arm ([1]; dsOBP2 injected adults): 14
number of insects choosing volatile arm ([1]; dsOBP2 injected adults): 13
number of insects failed (no choice) ([1]; dsOBP2 injected adults): 15
number of insects choosing hexane arm ([1]; dsOBP3 injected adults): 9
number of insects choosing volatile arm ([1]; dsOBP3 injected adults): 16
number of insects failed (no choice) ([1]; dsOBP3 injected adults): 15
number of insects choosing hexane arm ([1]; dsOBP11 injected adults): 8
number of insects choosing volatile arm ([1]; dsOBP11 injected adults): 17
number of insects failed (no choice) ([1]; dsOBP11 injected adults): 16

C/C(=C\CO)CCC[C@H](C)CCC[C@H](C)CCCC(C)C [plant alcohol]
behavioral response (in words) ([1]; dsOBP11 injected adults): lost the activation that repel
number of insects choosing hexane arm ([1]; dsOBP11 injected adults): 17
number of insects choosing volatile arm ([1]; dsOBP11 injected adults): 19
number of insects failed (no choice) ([1]; dsOBP11 injected adults): 13
behavioral response of S. furcifera (in words) (S. furcifera adults): significantly repellent effect
behavioral response of S. furcifera (in words) (S. furcifera adults; listed as Plant alcohol): strongly repellent

C=C/C(C)=C/C/C=C(\C)CCC=C(C)C [α-farnesene]
behavioral response (in words) ([1]; dsOBP3 injected adults): no longer attracted
number of insects choosing hexane arm ([1]; dsOBP3 injected adults): 11
number of insects choosing volatile arm ([1]; dsOBP3 injected adults): 12
number of insects failed (no choice) ([1]; dsOBP3 injected adults): 15
